# Measurements as given in patent US20070189973A1, “Contrast medium comprising liposomes containing hydrophobic chelate compound” (priority 2003, published 2007).
# Tested on: vascular smooth muscle cells
# Assay: Uptake amount of chelate compound by vascular smooth muscle cells (mixed culture with macrophages)
# Assay type: cell-based
# Conditions: liposome preparation PC: 50 nmol+PS: 50 nmol+Compound 1: 75 nmol; mixed culture system of vascular smooth muscle cells and macrophage; 37° C., 5% CO2, 24 hours
# Experimental: Uptake Amount of Chelate Compound by Vascular Smooth Muscle Cells
# Dipalmitoyl-PC (Funakoshi, No. 1201-41-0225) and dipalmitoyl-PS (Funakoshi, No. 1201-42-0237) at the ratio shown below were dissolved in chloroform together with a hydrophobic chelate compound (Compound 1 specifically shown above as a preferred compound) in an eggplant-shaped flask according to the method described in J. Med. Chem., 25 (12), 1500 (1982) to form a uniform solution. Then, the solvent was evaporated under reduced pressure to form a thin membrane on the bottom of the flask bottom. This thin membrane was dried in vacuum, then added with an appropriate amount of 0.9% physiological saline (Hikari Pharmaceutical, No. 512) and subjected to ultrasonication (No. 3542 probe type oscillator, Branson, 0.1 mW) for 5 minutes to obtain a uniform liposome dispersion. The diameters of the liposomes in the resulting dispersion were measured by using WBC analyzer (A-1042, Nihon Kohden). […] The liposome preparation mentioned below, which was produced by the above method, was added to a mixed culture system of vascular smooth muscle cells and macrophage described in International Publication WO 01/82977. The cells were cultured at 37° C. under 5% CO2 for 24 hours, and the amount of the chelate compound taken up into the vascular smooth muscle cells was quantified.
# PC: 50 nmol+PS: 50 nmol+Compound 1: 75 nmol […]
compound,measurement,value
CC(C)CCCC(C)C1CCC2C3C=CC4CC(OC(=O)COC(=O)CN(CCN(CC(=O)O)CC(=O)O)CCN(CC(=O)O)CC(=O)O)CCC4(C)C3CCC12C (stereo not shown) [Compound 1],Amount taken up by vascular smooth muscle cells,20 nmol/mg protein
